Experimental data published in US12636371B2, “Chemically coupled transporter for low-hydrophobicity bioactive drugs into the central nervous system” (Skybio LLC, priority 2021, dated 2026).
pEC50: −log10 of the molar value.

How the values were obtained:
E. coli DH5α = test: Antibiotic activity by disc diffusion assay (MIC); type: cell-based; conditions: disc diffusion, two-fold serial dilutions from 2 mg/ml, LB solid medium, overnight 37° C.
Description: In order to examine the antibiotic activity of the compounds synthesized in Example 1, an assay was performed using E. coli DH5α (Gram(−)), as a sensitive, indicator strain.
The antibacterial activities of test compounds were evaluated using the disc diffusion method (Kavanagh, F. Dilution methods of antibiotic assays in Analytical Microbiology. 1963; Pomares M F, Vincent P A, Farías R N, Salomón R A. Protective action of ppGpp in microcin J25-sensitive strains. J Bacteriol. 2008-190:4328-34). Briefly, filter-paper discs impregnated with 10 μl of two-fold serial dilutions of the test compounds, and were placed onto LB solid medium Petri dishes. Then, aliquots (50 μl) of an E. coli DH5α culture in stationary phase were mixed with 3 ml of top agar (0.7% agar) and overlaid onto the plates. After overnight incubation at 37° C., the plates were examined for different degrees of inhibition. Inhibition degrees produced by the test compound are expressed as Minimum Inhibitory Concentrations (MICs), defined as the lowest concentration of a compound that inhibit visible growth of bacteria. Each test was performed in duplicate vs. the reference compound Doxycycline.

Bv2 cells = test: MTT cytotoxicity assay in microglial Bv2 cell line; type: cell-based, murine; conditions: 10 and 20 μM, 24 h
Description: The ability of D9 to induce cytotoxicity was also studied using the MTT assay on Bv2 cells, a microglial cell line derived from the C57/BL6 murine model. For this, Bv2 cells were incubated in the presence and in the absence of different Pegasus concentrations at 37° C. Bv2 cells retain the morphology and functional characteristics of microglia and are therefore a widespread microglial model. These cells are immortalized by v-raf/v-myc carrying J2 retrovirus, and express nuclear v-myc and the cytoplasmic v-raf oncogene products as well as the env gp70 antigen at the surface level.
Bv2 cells were seeded in Poly-L-Lysine-treated 96-well plates at 15,000 cells/well and in 100 μl of DMEM supplemented with 10% Fetal Bovine Serum (FBS) and 1% Antibiotics/Antimycotics (PSA) and incubated for 24 h at 37° C. and 5% CO2. Afterwards, cells were treated with a 25 μl aliquot of a 50 µM and 100 μM Pegasus solution (final concentration in well 10 μM and 20 μM) and incubated for 24 h. To determine cell viability, the colorimetric MTT metabolic activity assay was used as previously described by Mosmann. All experiments were performed in sextuplicate, and the relative cell viability (%) was expressed as a percentage relative to the untreated control condition.

D1 dopamine receptor = D1 dopamine receptor (Homo sapiens, UniProt P21728); test: D1 receptor agonist assay, cAMP Nomad biosensor, HEK_cAMPNmd_FP650_D1 cells
Chain of D1 dopamine receptor (P21728 whole entry): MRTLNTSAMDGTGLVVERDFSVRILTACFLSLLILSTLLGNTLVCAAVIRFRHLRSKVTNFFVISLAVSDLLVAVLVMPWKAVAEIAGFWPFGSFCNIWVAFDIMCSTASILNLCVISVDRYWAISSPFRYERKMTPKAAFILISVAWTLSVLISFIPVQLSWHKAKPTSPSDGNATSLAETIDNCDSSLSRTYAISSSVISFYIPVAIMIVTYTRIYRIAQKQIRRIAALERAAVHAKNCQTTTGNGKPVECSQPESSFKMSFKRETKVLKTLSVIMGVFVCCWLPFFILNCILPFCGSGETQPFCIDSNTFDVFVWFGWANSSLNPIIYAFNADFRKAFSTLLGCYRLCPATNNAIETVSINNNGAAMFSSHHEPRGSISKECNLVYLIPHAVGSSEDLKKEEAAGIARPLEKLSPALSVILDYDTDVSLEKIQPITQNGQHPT
Description: To detect Nomad biosensor activation, the assay medium was removed and replaced by 100 ml of DPBS with calcium and magnesium. […] In U2OS_cAMPNmd_FP650_D2 cells, images were acquired using the CellInsight CX7 HCS Platform, and the number of fluorescent vesicles per cell was quantified with the HCS Studio Cell Analysis Software.

[1] = tested on: HEK293/Cytochrome C-tGFP cell line; test: Apoptosis assay, Cytochrome C-tGFP localization by confocal microscopy; type: cell-based; conditions: 200 μM, 24 h
Excerpt: Identification of genes linked to familiar forms of PD have uncovered many molecular pathways involved in neurodegeneration. One of such genes is PTEN-induced kinase 1 (PINK1), a mitochondrial serine/threonine-protein kinase that protects cells from stress-induced mitochondrial dysfunction. […] In fact, PINK1 is the second most frequent causative gene in early-onset PD, where mutations in this gene cause an autosomal recessive form of the disease. Frequent missense or truncating mutations of PINK1 are implicated in the pathogenesis of PARK6 (familial type 6 of PD). […] Therefore, the release of Cytochrome C from damaged mitochondria is considered a central event in apoptotic signaling. To characterize the ability of Pegasus (D9) to induce mitochondrial damage and apoptosis, as assayed by the release of Cytochrome C from mitochondria, a transgenic Cytochrome C-tGFP HEK293 cell line was used (INNOPROT #P30801) (Goldstein J C, Muñoz-Pinedo C, Ricci J E, et al. Cytochrome C is released in a single step during apoptosis. Cell Death Differ 2005; 12(5): 453-62).
The effect of Pegasus on the localization and distribution of mitochondrial Cytochrome C-tGFP was visualized by confocal microscopy after incubation with 200 μM of D9 for 24 hs in the HEK293/Cytochrome C-tGFP cell line (INNOPROT #P30801). Images were acquired in a ZEISS LSM800 Confocal Microscope.

D2 dopamine receptor = D2 dopamine receptor (Homo sapiens, UniProt P14416); test: D2 receptor agonist assay, cAMP Nomad biosensor, U2OS_cAMPNmd_FP650_D2 cells; type: cell-based; conditions: 24 h, 10 serial 1:3 dilutions from 30 μM, triplicate; read-out: EC50, D2 receptor activation
Chain of D2 dopamine receptor (P14416 whole entry): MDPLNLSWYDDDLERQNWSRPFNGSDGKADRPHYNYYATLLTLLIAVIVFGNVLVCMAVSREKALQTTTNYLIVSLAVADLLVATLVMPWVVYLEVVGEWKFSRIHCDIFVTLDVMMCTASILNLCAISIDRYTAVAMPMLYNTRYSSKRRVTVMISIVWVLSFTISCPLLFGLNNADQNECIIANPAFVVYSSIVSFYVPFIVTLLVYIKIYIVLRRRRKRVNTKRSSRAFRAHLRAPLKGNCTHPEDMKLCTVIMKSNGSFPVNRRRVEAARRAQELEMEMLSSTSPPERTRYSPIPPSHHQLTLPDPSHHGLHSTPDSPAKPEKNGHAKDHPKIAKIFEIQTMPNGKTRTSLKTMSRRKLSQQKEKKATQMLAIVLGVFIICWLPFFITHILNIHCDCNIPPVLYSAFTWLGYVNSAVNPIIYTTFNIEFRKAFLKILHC
Description: HEK_cAMPNmd_FP650_D1 and U2OS_cAMPNmd_FP650_D2 cells were seeded at a density of 30.000 and 20.000 cells/well, respectively, in 96-well plates. Cells were maintained in DMEM or DMEM-F12 medium supplemented with 10% FBS during 24 h at 37° C. in a humidified 5% CO2 atmosphere.
Cells were then incubated for 24 h.
To detect Nomad biosensor activation, the assay medium was removed and replaced by […] of DPBS with calcium and magnesium. […] In U2OS_cAMPNmd_FP650_D2 cells, images were acquired using the CellInsight CX7 HCS Platform, and the number of fluorescent vesicles per cell was quantified with the HCS Studio Cell Analysis Software.
The effect of the compounds in the regulation of D1 or D2 receptors' activation was analyzed measuring the CAMP signaling using the Nomad biosensor-based assay.
This same experiment was carried out in the U2OS_cAMPNmd_FP650_D2 cell line (FIG. 10). The effect of the compounds was analyzed quantifying the number of fluorescent vesicles in the cytoplasm of the cells using the HCS Studio Cell Analysis Software.

SH-SY5Y cells = test: MTT cytotoxicity assay in neuroblastoma SH-SY5Y cells; type: cell-based; conditions: 1, 10 and 20 μM, 24 h
Description: The impact of Pegasus (D9) on cellular viability was studied in SH-SY5Y neuroblastoma cell lines using the colorimetric Thiazolyl Blue Tetrazolium […] (MTT) metabolic activity assay (Mosmann T. Rapid colorimetric assay for cellular growth and survival: application to proliferation and cytotoxicity assays. J Immunol Methods 1983; 65(1-2): 55-63), which reports viable cell number based on mitochondrial activity.
SH-SY5Y cells were seeded in 96-well plates at 15,000 cells/well with 100 μl of DMEM supplemented with 10% Fetal Bovine Serum (FBS) and 1% Antibiotics/Antimycotics, and incubated for 24 h at 37° C. and 5% CO2. Afterwards, cells were treated with a 25 μl aliquot of a D9 solution 5 μM, 50 μM or 100 μM (final concentration in well 1 μM, 10 μM and 20 μM, respectively) and incubated for 24 h. To determine cell viability, the MTT assay was used as previously described by Mosmann (1983). All experiments were performed in sextuplicate, and the relative cell viability (%) was expressed as a percentage relative to the untreated control condition.

pEC50 (D1 dopamine receptor): 5.55 | pEC50 (D2 dopamine receptor): 4.95
SMILES: C[C@H]1c2ccc(NC(=O)CCC(=O)NCCc3ccc(O)c(O)c3)c(O)c2C(=O)C2=C(O)[C@]3(O)C(=O)C(C(N)=O)=C(O)CC3[C@@H](O)C21 (stereo partly drawn) [Pegasus]
MIC (E. coli DH5α): no antibiotic activity at the concentrations tested | Cytotoxicity (relative cell viability, MTT) (Bv2 cells): did not induce cell toxicity | Localization and distribution of Cytochrome C-tGFP (marker of apoptosis) [1]: no differences in localization and distribution of Cytochrome C-tGFP | Cytotoxicity (relative cell viability, MTT) (SH-SY5Y cells): no cytotoxic effect
